Here are results for one compound from ChEMBL document CHEMBL5046231, “Modulation of Naturally Occurring Linear Dipeptide Chirality to Reduce the Affinity for Oligopeptide Transporter 1 and Increase Intestinal Stability for an Enhanced Colon-Targeting Effect in the Treatment of Inflammatory Bowel Disease: An Application of trans-4-l-Hydroxyprolyl-l-serine” (J Med Chem, 2022).

Series [1] can be described thus: Chemical stability in 0.1 M HCl at pH 1.2 assessed as half life measured up to 12 hrs by HPLC analysis. The class given is physicochemical.
Series [2] in a line: Metabolic stability in healthy C57BL/6 mouse colonic flora homogenate assessed as half life measured up to 12 hrs by HPLC analysis. The class given is ADME.
A short description of series [3]: Metabolic stability in healthy C57BL/6 mouse plasma assessed as half life measured up to 12 hrs by HPLC analysis. The class given is ADME, cell-free.
The nature of series [4]: Metabolic stability in DSS-induced C57BL/6 mouse jejunum assessed as half life measured up to 12 hrs by HPLC analysis. The class given is ADME, tissue-based.
The nature of series [5]: Toxicity in healthy C57BL/6 mouse assessed as change in body weight at 100 mg/kg, po administered for 10 days. The format is organism-based. The note with it: in vivo, 240 h, time 10 day.
Series [6] is described as follows: Toxicity in healthy C57BL/6 mouse assessed as effect on colon length at 100 mg/kg, po administered for 10 days. The class given is organism-based. The note with it: in vivo, 240 h, time 10 day.
A short description of series [7]: Tmax in DSS-induced colitis C57BL/6 mouse model at 25 mg/kg, po measured up to 6 hrs by UPLC-MS/MS analysis. The class given is ADME, organism-based. The note with it: in vivo.
Series [8] is described as follows: AUC (0 to 6 hrs) in healthy C57BL/6 mouse at 25 mg/kg, po measured up to 6 hrs by UPLC-MS/MS analysis. The class given is ADME, organism-based. Also on record: route oral, dose 25 mg/kg, time <=6. The note with it: in vivo.
Series [9] can be described thus: Tmax in healthy C57BL/6 mouse at 25 mg/kg, po measured up to 6 hrs by UPLC-MS/MS analysis. The format is ADME, organism-based. The note with it: in vivo.
The test system of series [10] is Mus musculus. Put plainly: Anti-colitis activity against DSS-induced C57BL/6 mouse model of colitis assessed as fold change in disease activity index at 25 to 100 mg/kg, po administered via gavage twice a day for 10 days relative to SASP. The note with it: dose 25-100 mg/kg; time 10 day. The format is functional.
For series [11], the system named is Mus musculus. Put plainly: Antiinflammatory activity in DSS-induced C57BL/6 mouse model of colitis assessed as decrease in TNF-alpha level 25 to 100 mg/kg, po administered via gavage twice a day for 10 days. As to conditions: dose 25-100 mg/kg, time 10.0 day. The format is functional, organism-based.
The subject of series [12] is Mus musculus. Put plainly: Antiinflammatory activity in DSS-induced C57BL/6 mouse model of colitis assessed as decrease in IL-1beta level 25 to 100 mg/kg, po administered via gavage twice a day for 10 days. The note with it: dose 25-100 mg/kg, time 10.0 day. The format is functional, organism-based.
Series [13] deals with Mus musculus. The series can be described thus: Antiinflammatory activity in DSS-induced C57BL/6 mouse model of colitis assessed as decrease in […] level 25 to 100 mg/kg, po administered via gavage twice a day for 10 days. The class given is functional, organism-based. As to conditions: dose 25-100 mg/kg, time 10.0 day.
The subject of series [14] is Mus musculus. Put plainly: Antiinflammatory activity in DSS-induced C57BL/6 mouse model of colitis assessed as increase in IL-10 level 25 to 100 mg/kg, po administered via gavage twice a day for 10 days. The class given is functional, organism-based. The note with it: dose 25-100 mg/kg, time 10.0 day.

The source made the active and inactive calls. The rule behind the calls is not given here.

For orientation: half-life means how long it takes for the measured level to halve. By Tmax is commonly meant the time at which the peak concentration occurs. In the case of `O=C(O)[C@@H](CO)NC(=O)[C@H]1C[C@@H](O)CN1`, the half-life in [1], in series [2], in series [3] and in series [4] was greater than 720 min each time. Further, the Activity result in series [5] and in [6] was “Non-Toxic” throughout. The Tmax in series [7] and in series [9] was 4 h each time. Also, the AUC in series [8] is 16.61 microM/L.hr. The “fold change (FC)” value in the series with Mus musculus [10] amounted to 2.3. Also, the result in the series with Mus musculus [11], in the series with Mus musculus [12], in the series with Mus musculus [13] and in the series on Mus musculus [14] was Active.
